Reference: patent US9540348B2, “Imidazole-1-yl pyrimidine derivatives, or pharmacutically acceptable salt thereof, and pharmaceutic composition comprising the same as an active ingredient” (Industry-University Cooperation Foundation Hanyang …, priority 2015, dated 2017)
“Also recorded” adds a separate entry of the source.

How the values were obtained:
[1] = tested on: U937 human leukemic monocyte lymphoma cell line; test: Antiproliferative activity to U937 human leukemic monocyte lymphoma cell line; format: cell-based
Method: The antiproliferative activity of the compounds of Examples to A375P human melanoma cell line and U937 human leukemic monocyte lymphoma cell line are evaluated and listed in the following Table 1.

ALK = ALK (Homo sapiens, UniProt Q9UM73); test: Kinase panel screening; format: biochemical; details: 10 μM concentration; read-out: Inhibition Rate (Unit: %) ALK
Sequence of ALK (Q9UM73 19-1620, species assumed): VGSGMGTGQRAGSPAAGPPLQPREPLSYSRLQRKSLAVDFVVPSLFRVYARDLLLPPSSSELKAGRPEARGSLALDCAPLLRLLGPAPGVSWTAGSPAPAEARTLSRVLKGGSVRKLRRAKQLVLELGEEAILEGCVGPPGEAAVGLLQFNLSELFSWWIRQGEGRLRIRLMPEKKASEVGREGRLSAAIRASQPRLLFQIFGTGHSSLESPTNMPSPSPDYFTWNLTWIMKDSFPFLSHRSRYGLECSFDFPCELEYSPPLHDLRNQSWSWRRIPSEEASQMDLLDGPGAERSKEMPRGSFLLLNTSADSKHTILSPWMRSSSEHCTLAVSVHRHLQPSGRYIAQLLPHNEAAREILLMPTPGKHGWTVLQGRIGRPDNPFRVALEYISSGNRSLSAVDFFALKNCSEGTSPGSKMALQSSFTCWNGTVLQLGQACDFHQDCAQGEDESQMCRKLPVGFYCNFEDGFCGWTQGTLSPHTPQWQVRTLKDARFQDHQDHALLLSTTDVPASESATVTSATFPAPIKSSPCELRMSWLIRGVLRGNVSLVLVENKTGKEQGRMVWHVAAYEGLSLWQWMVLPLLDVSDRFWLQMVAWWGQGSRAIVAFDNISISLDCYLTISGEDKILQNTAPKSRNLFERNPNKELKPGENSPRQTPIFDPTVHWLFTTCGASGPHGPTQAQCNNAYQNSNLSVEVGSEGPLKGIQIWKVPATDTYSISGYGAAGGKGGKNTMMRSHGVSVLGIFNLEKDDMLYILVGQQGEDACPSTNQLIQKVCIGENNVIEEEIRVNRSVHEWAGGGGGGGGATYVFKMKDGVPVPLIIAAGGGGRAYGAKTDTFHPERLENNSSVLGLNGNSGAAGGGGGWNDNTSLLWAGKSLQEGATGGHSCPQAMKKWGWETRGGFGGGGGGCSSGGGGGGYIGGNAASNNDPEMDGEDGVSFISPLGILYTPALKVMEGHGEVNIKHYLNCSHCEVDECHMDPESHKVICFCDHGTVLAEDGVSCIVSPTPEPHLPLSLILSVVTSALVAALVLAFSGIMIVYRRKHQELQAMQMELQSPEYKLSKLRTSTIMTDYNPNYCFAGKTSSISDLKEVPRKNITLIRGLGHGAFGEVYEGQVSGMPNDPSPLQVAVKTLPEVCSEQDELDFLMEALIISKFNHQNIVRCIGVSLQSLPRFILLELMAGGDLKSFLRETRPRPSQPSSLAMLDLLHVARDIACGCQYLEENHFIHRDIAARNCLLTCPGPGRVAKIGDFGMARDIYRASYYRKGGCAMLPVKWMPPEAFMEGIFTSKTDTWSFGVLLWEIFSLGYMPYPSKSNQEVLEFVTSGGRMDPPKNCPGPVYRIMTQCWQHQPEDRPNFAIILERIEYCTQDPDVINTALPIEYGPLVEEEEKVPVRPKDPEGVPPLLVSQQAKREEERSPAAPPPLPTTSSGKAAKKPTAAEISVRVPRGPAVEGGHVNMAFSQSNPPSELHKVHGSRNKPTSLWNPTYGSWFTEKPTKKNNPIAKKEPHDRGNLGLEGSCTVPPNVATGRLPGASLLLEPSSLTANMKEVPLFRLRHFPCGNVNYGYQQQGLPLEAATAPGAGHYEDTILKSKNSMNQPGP
Method: (§1) To Compound 10c of Example 23, kinase panel screening was carried out to 32 kinds of kinases in 10 μM concentration and the results are listed in the following Table 2.

Aurora A = Aurora A (Homo sapiens, UniProt O14965); test: Kinase panel screening; format: biochemical; details: 10 μM concentration; read-out: Inhibition Rate (Unit: %) Aurora A
Sequence of Aurora A (O14965 whole entry): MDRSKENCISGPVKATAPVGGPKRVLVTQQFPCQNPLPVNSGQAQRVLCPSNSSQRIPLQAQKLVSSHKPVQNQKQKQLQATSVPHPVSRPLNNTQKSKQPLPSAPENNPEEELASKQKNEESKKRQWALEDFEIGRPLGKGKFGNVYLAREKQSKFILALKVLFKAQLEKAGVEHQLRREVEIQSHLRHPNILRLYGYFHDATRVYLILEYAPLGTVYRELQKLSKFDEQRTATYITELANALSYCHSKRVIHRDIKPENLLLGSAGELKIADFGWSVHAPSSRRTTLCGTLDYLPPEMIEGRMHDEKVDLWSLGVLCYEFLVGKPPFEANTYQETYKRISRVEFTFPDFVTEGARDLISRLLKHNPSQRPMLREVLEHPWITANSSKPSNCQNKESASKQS
Method: as §1

BRAF (V600E) [2] = target: T1, BRAF (V600E) (Homo sapiens, UniProt P15056, V600E); test: Kinase panel screening; format: biochemical; details: 10 μM concentration
T1 sequence (P15056 whole entry V600E): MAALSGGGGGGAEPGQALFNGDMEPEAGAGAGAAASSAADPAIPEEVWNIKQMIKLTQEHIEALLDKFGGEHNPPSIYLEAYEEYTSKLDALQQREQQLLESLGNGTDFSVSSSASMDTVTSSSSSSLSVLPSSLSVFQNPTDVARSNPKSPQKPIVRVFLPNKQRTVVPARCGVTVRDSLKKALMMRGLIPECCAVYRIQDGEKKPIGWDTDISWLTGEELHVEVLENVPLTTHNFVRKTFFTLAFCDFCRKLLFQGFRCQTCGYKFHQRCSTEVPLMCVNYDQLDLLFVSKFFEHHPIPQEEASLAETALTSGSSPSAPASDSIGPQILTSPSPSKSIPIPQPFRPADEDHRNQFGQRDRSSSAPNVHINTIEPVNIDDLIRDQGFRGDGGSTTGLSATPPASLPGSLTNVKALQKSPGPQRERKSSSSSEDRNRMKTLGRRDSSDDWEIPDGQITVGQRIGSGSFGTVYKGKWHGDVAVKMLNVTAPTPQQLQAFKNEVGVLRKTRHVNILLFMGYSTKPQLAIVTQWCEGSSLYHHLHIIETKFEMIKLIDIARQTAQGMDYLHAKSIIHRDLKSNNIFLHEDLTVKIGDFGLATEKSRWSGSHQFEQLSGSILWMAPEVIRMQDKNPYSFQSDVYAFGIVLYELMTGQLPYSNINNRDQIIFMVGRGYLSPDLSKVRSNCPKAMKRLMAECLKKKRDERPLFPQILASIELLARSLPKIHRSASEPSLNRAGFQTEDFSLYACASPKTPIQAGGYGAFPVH
Method: as §1

RON/MST1R = RON/MST1R (Homo sapiens, UniProt Q04912); test: Kinase panel screening; format: biochemical; details: 10 μM concentration; read-out: Inhibition Rate (Unit: %) RON/MST1R
Sequence of RON/MST1R (Q04912 25-1400): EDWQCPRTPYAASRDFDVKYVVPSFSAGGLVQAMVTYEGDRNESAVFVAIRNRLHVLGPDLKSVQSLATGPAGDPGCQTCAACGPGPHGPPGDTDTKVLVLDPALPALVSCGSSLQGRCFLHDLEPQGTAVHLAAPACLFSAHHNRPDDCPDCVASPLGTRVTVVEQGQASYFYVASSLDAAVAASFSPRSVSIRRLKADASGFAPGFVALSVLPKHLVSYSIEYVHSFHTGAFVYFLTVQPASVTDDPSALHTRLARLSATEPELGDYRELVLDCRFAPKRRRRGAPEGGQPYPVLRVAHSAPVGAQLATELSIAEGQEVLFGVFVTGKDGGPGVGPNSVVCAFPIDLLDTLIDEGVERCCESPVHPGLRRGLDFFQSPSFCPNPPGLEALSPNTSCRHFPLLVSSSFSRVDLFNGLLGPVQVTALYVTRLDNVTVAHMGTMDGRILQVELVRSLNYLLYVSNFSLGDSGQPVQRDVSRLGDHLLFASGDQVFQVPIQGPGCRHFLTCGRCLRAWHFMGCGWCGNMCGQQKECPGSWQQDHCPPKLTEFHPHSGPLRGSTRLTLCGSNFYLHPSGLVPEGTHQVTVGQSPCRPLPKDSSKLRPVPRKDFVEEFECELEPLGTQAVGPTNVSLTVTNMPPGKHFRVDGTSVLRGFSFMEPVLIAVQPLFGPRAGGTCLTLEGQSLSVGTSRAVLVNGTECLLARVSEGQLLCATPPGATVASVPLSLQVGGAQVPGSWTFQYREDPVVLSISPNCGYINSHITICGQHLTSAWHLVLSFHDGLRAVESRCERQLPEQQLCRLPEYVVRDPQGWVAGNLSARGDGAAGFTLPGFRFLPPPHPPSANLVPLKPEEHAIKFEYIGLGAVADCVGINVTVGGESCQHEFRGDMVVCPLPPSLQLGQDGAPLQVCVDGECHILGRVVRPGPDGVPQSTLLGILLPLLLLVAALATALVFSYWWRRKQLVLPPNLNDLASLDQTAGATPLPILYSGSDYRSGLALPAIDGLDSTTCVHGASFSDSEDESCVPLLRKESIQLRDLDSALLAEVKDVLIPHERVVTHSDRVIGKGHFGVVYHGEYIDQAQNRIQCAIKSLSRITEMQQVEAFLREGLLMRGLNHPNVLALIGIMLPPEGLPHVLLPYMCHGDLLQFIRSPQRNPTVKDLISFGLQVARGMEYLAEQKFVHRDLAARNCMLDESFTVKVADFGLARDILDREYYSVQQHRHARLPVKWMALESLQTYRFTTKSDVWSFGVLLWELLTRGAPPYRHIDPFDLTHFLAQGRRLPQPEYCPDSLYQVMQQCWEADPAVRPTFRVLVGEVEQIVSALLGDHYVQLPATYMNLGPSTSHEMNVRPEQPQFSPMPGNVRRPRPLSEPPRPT
Method: as §1

c-Kit = c-Kit (Homo sapiens, UniProt P10721); test: Kinase panel screening; format: biochemical; details: 10 μM concentration; read-out: Inhibition Rate (Unit: %) c-Kit
Sequence of c-Kit (P10721 26-976): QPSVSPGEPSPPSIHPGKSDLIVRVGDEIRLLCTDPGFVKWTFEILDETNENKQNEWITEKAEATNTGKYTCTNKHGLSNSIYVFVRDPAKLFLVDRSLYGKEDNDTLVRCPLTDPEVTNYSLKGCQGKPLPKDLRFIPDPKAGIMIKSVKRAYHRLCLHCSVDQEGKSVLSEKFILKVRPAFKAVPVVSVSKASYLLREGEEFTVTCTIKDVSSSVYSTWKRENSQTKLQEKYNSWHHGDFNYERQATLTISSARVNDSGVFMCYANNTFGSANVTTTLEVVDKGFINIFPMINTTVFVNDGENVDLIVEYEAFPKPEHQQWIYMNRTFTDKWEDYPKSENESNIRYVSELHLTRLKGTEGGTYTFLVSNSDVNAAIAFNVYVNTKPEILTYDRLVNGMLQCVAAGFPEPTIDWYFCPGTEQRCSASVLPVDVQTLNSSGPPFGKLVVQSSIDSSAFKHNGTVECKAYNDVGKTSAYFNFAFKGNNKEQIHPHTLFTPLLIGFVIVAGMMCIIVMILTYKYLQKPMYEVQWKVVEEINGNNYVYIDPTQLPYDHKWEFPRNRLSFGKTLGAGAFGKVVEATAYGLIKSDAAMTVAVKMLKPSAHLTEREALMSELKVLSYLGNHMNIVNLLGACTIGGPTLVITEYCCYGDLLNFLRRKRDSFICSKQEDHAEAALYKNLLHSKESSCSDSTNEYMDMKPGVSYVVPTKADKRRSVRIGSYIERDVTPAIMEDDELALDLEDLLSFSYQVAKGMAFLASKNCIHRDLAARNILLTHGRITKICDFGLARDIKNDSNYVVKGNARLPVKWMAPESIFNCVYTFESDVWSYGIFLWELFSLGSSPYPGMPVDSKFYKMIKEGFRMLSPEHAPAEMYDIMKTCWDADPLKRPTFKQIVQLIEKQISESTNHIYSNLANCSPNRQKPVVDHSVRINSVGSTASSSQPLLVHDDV
Method: as §1

c-MET = c-MET (Homo sapiens, UniProt P08581); test: Kinase panel screening; format: biochemical; details: 10 μM concentration; read-out: Inhibition Rate (Unit: %) c-MET
Method: as §1

BRAF (V600E) [3] = target: T1, BRAF (V600E); test: Enzymatic activity (IC50) to kinases; format: biochemical; details: read-out: IC50 (Unit: nM) BRAF (V600E)

GI50 ([1]; U-937, U937 human leukemic monocyte lymphoma cell line, read-out: U937 (GI50, Unit: μM)): 2.73 µM | inhibition at 10 µM (ALK): 4.9% | inhibition at 10 µM (Aurora A): 17.6% | Inhibition Rate (Unit: %) BRAF (V600E) (BRAF (V600E) [2]; 10 µM): 96.1% | inhibition at 10 µM (BRAF (V600E) [2]; read-out: Inhibition Rate (Unit: %) BRAF (V600E)): 99% | inhibition at 10 µM (RON/MST1R): 0.42% | inhibition at 10 µM (c-Kit): 63.8% | inhibition at 10 µM (c-MET): 17.6% | IC50 (BRAF (V600E) [3]): 38.3 nM
Structure (SMILES): C[C@H](O)CNc1nccc(-n2ccnc2Cc2cccc(NC(=O)Nc3ccc(C(F)(F)F)c(Cl)c3)c2)n1 [Example 23, (S)-1-(3-chloro-4-(trifluoromethyl)phenyl)-3-(3-((1-(2-((2-hydroxypropyl)amino)pyrimidin-4-yl)-1H-imidazol-2-yl)methyl)phenyl)urea]
potency against U937, in words ([1]; U937 cell line, comparison with Sorafenib): large potencies; also recorded: better potencies than Sorafenib
